{"source": "paper PMC7138307", "about": "(PLoS ONE, 2020)", "experiment_in_all_cases": "Ex vivo KiNativ ATP/ADP probe competition in mouse cortical brain lysates", "type_in_all_cases": "binding", "key": {"CaMK1a": {"target": "T1, CaMK1a (Mus musculus, UniProt Q91YS8)", "T1 construct": "from tissue; host or cells: mouse cortical brain lysate", "T1 sequence (Q91YS8 whole entry)": "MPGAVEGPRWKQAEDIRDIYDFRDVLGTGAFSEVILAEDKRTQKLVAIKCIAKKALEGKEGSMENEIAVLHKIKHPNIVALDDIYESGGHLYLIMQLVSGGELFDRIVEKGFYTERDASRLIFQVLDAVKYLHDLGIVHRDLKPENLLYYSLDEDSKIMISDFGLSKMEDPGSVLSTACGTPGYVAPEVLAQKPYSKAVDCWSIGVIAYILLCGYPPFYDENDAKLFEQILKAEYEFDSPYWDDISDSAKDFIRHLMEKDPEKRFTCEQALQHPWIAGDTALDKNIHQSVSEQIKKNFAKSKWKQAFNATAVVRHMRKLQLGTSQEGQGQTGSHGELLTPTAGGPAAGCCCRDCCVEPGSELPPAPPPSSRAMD"}, "MAP4K5": {"target": "T2, MAP4K5 (Mus musculus, UniProt Q8BPM2)", "T2 construct": "from tissue; host or cells: mouse cortical brain lysate", "T2 sequence (Q8BPM2 whole entry)": "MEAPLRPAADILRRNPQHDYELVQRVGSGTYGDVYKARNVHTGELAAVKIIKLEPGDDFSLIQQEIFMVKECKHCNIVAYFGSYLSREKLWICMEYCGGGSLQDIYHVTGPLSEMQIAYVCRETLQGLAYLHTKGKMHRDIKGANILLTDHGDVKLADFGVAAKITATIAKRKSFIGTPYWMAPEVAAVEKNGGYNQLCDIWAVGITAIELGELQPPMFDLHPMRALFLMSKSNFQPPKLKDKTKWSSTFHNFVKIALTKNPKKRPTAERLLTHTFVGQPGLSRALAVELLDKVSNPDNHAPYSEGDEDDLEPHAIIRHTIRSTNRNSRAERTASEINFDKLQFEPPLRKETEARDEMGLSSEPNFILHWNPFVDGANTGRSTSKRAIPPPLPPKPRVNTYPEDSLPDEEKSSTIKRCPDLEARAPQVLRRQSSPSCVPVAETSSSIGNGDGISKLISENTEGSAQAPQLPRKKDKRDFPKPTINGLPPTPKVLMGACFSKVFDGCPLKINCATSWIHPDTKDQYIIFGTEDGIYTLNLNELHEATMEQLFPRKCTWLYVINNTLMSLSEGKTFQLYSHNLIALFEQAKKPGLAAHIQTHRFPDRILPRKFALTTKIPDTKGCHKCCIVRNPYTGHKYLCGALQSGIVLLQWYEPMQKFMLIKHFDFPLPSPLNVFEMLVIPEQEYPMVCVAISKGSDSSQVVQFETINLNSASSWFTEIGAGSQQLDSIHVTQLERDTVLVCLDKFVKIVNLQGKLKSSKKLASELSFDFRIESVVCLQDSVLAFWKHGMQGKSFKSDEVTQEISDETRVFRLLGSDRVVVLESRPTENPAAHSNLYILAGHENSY", "settings": "NVHTGELAAVKIIK, Lys1"}, "PITSLRE": {"target": "T3, PITSLRE (Mus musculus, UniProt P24788)", "T3 construct": "from tissue; host or cells: mouse cortical brain lysate", "T3 sequence (P24788 1-784)": "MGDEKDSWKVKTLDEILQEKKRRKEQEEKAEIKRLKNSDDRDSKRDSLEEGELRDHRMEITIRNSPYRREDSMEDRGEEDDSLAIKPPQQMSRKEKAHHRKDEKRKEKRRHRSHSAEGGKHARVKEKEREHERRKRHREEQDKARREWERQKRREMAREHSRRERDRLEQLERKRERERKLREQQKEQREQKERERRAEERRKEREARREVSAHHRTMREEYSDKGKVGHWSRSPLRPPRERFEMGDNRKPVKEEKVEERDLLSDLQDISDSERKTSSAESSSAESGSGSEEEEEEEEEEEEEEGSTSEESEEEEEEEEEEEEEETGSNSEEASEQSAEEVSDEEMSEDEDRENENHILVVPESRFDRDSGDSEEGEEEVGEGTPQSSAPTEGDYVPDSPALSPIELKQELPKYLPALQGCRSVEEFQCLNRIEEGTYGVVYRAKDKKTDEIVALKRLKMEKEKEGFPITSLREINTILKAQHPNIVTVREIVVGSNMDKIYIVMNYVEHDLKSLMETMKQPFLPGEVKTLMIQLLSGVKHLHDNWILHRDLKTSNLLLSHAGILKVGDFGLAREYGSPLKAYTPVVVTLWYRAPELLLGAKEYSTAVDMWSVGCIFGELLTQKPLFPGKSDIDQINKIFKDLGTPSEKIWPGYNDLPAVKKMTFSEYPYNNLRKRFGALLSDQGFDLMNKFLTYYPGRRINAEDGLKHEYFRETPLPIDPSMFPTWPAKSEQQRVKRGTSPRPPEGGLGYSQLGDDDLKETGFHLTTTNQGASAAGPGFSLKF", "settings": "DLKTSNLLLSHAGILK; Lys2; ATP probe"}, "TAO1": {"target": "T4, TAO1 (Mus musculus, UniProt Q5F2E8)", "T4 construct": "from tissue; host or cells: mouse cortical brain lysate", "T4 sequence (Q5F2E8 1-1001)": "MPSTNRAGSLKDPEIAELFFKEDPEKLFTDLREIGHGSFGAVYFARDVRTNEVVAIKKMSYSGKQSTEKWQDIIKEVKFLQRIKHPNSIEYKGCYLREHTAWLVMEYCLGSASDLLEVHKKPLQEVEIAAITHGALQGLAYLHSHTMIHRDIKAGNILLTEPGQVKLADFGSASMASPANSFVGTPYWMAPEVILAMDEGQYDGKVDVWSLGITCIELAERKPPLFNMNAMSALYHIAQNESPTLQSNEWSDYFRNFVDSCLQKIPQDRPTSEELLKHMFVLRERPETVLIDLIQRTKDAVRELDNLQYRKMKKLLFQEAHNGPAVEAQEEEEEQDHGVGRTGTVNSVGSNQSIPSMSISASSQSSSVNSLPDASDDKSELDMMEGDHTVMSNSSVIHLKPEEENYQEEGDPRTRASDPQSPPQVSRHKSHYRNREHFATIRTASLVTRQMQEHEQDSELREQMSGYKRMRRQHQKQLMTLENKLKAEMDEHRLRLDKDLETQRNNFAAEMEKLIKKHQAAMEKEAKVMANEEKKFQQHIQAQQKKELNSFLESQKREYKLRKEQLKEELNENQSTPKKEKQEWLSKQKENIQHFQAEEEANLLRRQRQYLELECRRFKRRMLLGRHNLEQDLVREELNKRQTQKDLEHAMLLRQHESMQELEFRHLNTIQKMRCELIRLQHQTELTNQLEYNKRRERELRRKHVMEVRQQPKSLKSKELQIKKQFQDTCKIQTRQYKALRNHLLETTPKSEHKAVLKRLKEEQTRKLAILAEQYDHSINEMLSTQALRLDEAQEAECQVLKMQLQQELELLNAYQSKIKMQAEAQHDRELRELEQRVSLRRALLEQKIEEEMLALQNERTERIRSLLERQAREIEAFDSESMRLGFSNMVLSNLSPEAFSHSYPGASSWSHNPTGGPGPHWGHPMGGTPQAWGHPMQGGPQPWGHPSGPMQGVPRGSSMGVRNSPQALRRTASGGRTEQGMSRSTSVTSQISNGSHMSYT", "settings": "TNEVVAIKK; Lys1; ADP probe"}}}
{"smiles": "CCC(C)(O)C#Cc1cc2c(ccn2-c2ccnc(N)n2)cn1", "note": "(centres unmarked) [BIIB-TTBK1i]", "values": [{"measurement": "Percent Inhibition at 1μM", "setting": "CaMK1a; DLKPENLLYYSLDEDSK, Lys2, ADP probe", "value": 64.7, "unit": "%"}, {"measurement": "Percent Inhibition at 1μM", "setting": "CaMK1a; DLKPENLLYYSLDEDSK, Lys2, ATP probe", "value": 63.8, "unit": "%"}, {"measurement": "Percent Inhibition at 1μM", "setting": "CaMK1a; LVAIKCIAK, Lys1, ADP probe", "value": 69.3, "unit": "%"}, {"measurement": "Percent Inhibition at 1μM", "setting": "CaMK1a; LVAIKCIAK, Lys1, ATP probe", "value": 69.2, "unit": "%"}, {"measurement": "Percent Inhibition at 1μM", "setting": "MAP4K5; ADP probe", "value": 69.7, "unit": "%"}, {"measurement": "Percent Inhibition at 1μM", "setting": "MAP4K5; ATP probe", "value": 58.7, "unit": "%"}, {"measurement": "Percent Inhibition at 1μM", "setting": "PITSLRE", "value": 63.3, "unit": "%"}, {"measurement": "Percent Inhibition at 1μM", "setting": "TAO1", "value": 75.9, "unit": "%"}]}
